Measured values: patent US6413914B1, “Low foam N,N′-dialkylmalamide wetting agents” (Air Products and Chemicals, Inc., priority 2001, dated 2002)

Columns and labels:
Assay type in all cases: physicochemical
[1] = Foaming properties, procedure based upon ASTM D 1173-53; conditions: for Initial Foam: foam height at completion of addition
Protocol: The foaming properties of aqueous solutions of N,N′-di-iso-pentyl DL-malamide (Ex 2) and N,N′-di-2-ethylhexyl DL-malamide (Ex 3), were examined using a procedure based upon ASTM D 1173-53. In this test, a 0.1 wt % aqueous mixture of the surfactant was prepared, any undissolved solids were filtered off, and the filtrate was added from an elevated glass pipette to a glass receiver containing the same filtrate. The foam height was measured at the completion of the addition (“Initial Foam Height”) and the time required for the foam to dissipate at the air-liquid interface (“Time to 0 Foam”) was recorded. This test provides a comparison between the foaming characteristics of various surfactants. In general, in coatings, inks, adhesives, fountain solution, agricultural, and electronic chemical formulations, foam is undesirable because it complicates handling and can lead to coating and print defects, and to inefficient application of agricultural materials or electronic chemicals.
The foaming properties of 0.1 wt % solutions of two representative nonionic surfactants, a commercial nonylphenol 15 mole ethoxylate surfactant and a commercial C8 alkyl glucoside surfactant were examined using the procedure based upon ASTM D 1173-53.

[2] = Concentration of surfactant in filtered saturated solution in distilled water; conditions: shaken ~24 hours
Protocol: (§1) Saturated solutions of the materials of Examples 1-3 in distilled water were prepared. After shaking the solutions for ˜24 hours, the undissolved material was removed via filtration. Equilibrium surface tension data were obtained using the Wilhelmy plate method, described in L. Wilhelmy, Ann. Phys. 1863, 119, 177.

[3] = Equilibrium surface tension, Wilhelmy plate method, saturated solutions in distilled water; conditions: for Limiting EST: saturated solution in distilled water, undissolved material filtered off, Wilhelmy plate, 25° C.
Protocol: as §1
The limiting surface tensions represent the lowest surface tensions in water which can be achieved for a given surfactant regardless of the amount of surfactant used and is used to evaluate the effectiveness of a surfactant. Lower surface tensions would allow for the elimination of defects upon application of a formulation onto low energy surfaces.

[4] = 0.1 wt % aqueous mixture, filtered

Compound | Foam after 5 min [1, 4] [cm] | Initial Foam [1, 4] [cm] | Time to zero foam ([1]; 0.1 wt % solution) [min] | Concentration of Surfactant in Solution [2] [wt. %] | Limiting EST [3] [dyne/cm] | Time to zero foam [1, 4] | lowering the equilibrium surface tension of water (in words) [3]
Nonylphenol 15 mole ethoxylate [reference compound] | 4 | 5 | >5 | – | – | – | –
CC(C)CNC(=O)CC(O)C(=O)NCC(C)C (racemic) [Di-isobutyl DL-malamide (Ex 1), N,N′-Di-iso-butyl DL-malamide] | – | – | – | <1.0 | 51.3 | – | –
CC(C)CCNC(=O)CC(O)C(=O)NCCC(C)C (racemic) [Di-isopentyl DL-malamide (Ex 2), N,N′-Di-iso-pentyl DL-malamide] | 0 | 1.4 | – | <0.4 | 42.9 | 0.583 min | particularly effective
CCCCC(CC)CNC(=O)CC(O)C(=O)NCC(CC)CCCC (racemic) [Di-2-ethylhexyl DL-malamide (Ex 3), N,N′-Di-2-ethylhexyl DL-malamide] | 0 | 1.5 | – | <0.1 | 38.5 | ˜2 sec | particularly effective
C8 Alkyl glucoside [reference compound] | 1.0 | 1.9 | 37 | – | – | – | –
